Reference: PubChem BioAssay (NCI)
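1) Cells in 96-well plates. 2) Compound, 48 h, 5 concentrations. 3) Linear interpolation between surrounding doses. 4) Unreached endpoint = highest concentration. The concentration for 50% growth inhibition is given as GI50. At the TGI there is no net growth.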

Experiments:
Test in all cases: DTP human tumour cell line panel, 48 h; in the data active = GI50 below about 0.43 µM; inactive = the rest
HCC-2998 colon = system: HCC-2998 colon
TK-10 renal = system: TK-10 renal
EKVX NSCLC = system: EKVX NSCLC
CCRF-CEM leukemia = system: CCRF-CEM leukemia
SN12C renal = system: SN12C renal
A549 NSCLC = system: A549 NSCLC
T-47D breast = system: T-47D breast
NCI/ADR-RES ovarian = system: NCI/ADR-RES ovarian
A498 renal = system: A498 renal
HL-60(TB) leukemia = system: HL-60(TB) leukemia
MDA-MB-435 = system: MDA-MB-435
RPMI-8226 leukemia = system: RPMI-8226 leukemia
SK-MEL-28 melanoma = system: SK-MEL-28 melanoma
OVCAR-3 ovarian = system: OVCAR-3 ovarian
HS 578T breast = system: HS 578T breast
HCT-15 colon = system: HCT-15 colon
PC-3 prostate = system: PC-3 prostate
MOLT-4 leukemia = system: MOLT-4 leukemia
DU-145 prostate = system: DU-145 prostate
UACC-257 melanoma = system: UACC-257 melanoma
IGROV1 ovarian = system: IGROV1 ovarian
SK-OV-3 ovarian = system: SK-OV-3 ovarian
HOP-92 NSCLC = system: HOP-92 NSCLC
M14 melanoma = system: M14 melanoma
SR leukemia = system: SR leukemia
COLO 205 colon = system: COLO 205 colon
RXF 393 renal = system: RXF 393 renal
UACC-62 melanoma = system: UACC-62 melanoma
SF-539 CNS = system: SF-539 CNS
MDA-MB-231 breast = system: MDA-MB-231 breast
BT-549 breast = system: BT-549 breast
HOP-62 NSCLC = system: HOP-62 NSCLC
HT29 colon = system: HT29 colon
MALME-3M melanoma = system: MALME-3M melanoma
OVCAR-5 ovarian = system: OVCAR-5 ovarian
KM12 colon = system: KM12 colon
HCT-116 colon = system: HCT-116 colon
UO-31 renal = system: UO-31 renal
SNB-75 CNS = system: SNB-75 CNS
SF-268 CNS = system: SF-268 CNS
NCI-H226 lung = system: NCI-H226 lung
NCI-H522 lung = system: NCI-H522 lung
OVCAR-8 ovarian = system: OVCAR-8 ovarian
CAKI-1 renal = system: CAKI-1 renal
U251 CNS = system: U251 CNS
SK-MEL-5 melanoma = system: SK-MEL-5 melanoma
ACHN renal = system: ACHN renal
786-0 renal = system: 786-0 renal
NCI-H460 lung = system: NCI-H460 lung
K-562 leukemia = system: K-562 leukemia
LOX IMVI melanoma = system: LOX IMVI melanoma
NCI-H23 lung = system: NCI-H23 lung
SW-620 colon = system: SW-620 colon
MCF7 breast = system: MCF7 breast
SNB-19 CNS = system: SNB-19 CNS
OVCAR-4 ovarian = system: OVCAR-4 ovarian
SK-MEL-2 melanoma = system: SK-MEL-2 melanoma
SF-295 CNS = system: SF-295 CNS

CCO/C=N/C1=C(C#N)C(c2ccc(OC)cc2)c2sc3c(C)cccc3c2O1 (stereo unspecified)
774 nM: TGI (SNB-75 CNS)
7840 nM: TGI (SR leukemia)
> 62400 nM: TGI (786-0 renal)
1730 nM: TGI (HL-60(TB) leukemia)
35500 nM: TGI (HT29 colon)
active: GI50 (A498 renal) 291 nM | GI50 (HL-60(TB) leukemia) 290 nM | GI50 (MDA-MB-435) 243 nM | GI50 (RPMI-8226 leukemia) 417 nM | GI50 (OVCAR-3 ovarian) 394 nM | GI50 (HS 578T breast) 350 nM | GI50 (M14 melanoma) 421 nM | GI50 (SR leukemia) 376 nM | GI50 (RXF 393 renal) 233 nM | GI50 (SF-539 CNS) 316 nM | GI50 (HCT-116 colon) 402 nM | GI50 (SNB-75 CNS) 203 nM | GI50 (NCI-H522 lung) 426 nM | GI50 (CAKI-1 renal) 321 nM | GI50 (NCI-H460 lung) 407 nM | GI50 (K-562 leukemia) 333 nM | GI50 (MCF7 breast) 347 nM | GI50 (SF-295 CNS) 362 nM
> 37800 nM: TGI (SF-295 CNS)
> 55200 nM: TGI (HOP-92 NSCLC)
> 100000 nM: TGI (TK-10 renal) | TGI (EKVX NSCLC) | TGI (CCRF-CEM leukemia) | TGI (A549 NSCLC) | TGI (T-47D breast) | TGI (NCI/ADR-RES ovarian) | TGI (SK-MEL-28 melanoma) | TGI (OVCAR-3 ovarian) | TGI (PC-3 prostate) | TGI (DU-145 prostate) | TGI (UACC-257 melanoma) | TGI (IGROV1 ovarian) | TGI (SK-OV-3 ovarian) | TGI (UACC-62 melanoma) | TGI (MALME-3M melanoma) | TGI (OVCAR-5 ovarian) | TGI (KM12 colon) | TGI (UO-31 renal) | TGI (SF-268 CNS) | TGI (OVCAR-8 ovarian) | TGI (CAKI-1 renal) | TGI (ACHN renal) | TGI (NCI-H460 lung) | TGI (K-562 leukemia) | TGI (NCI-H23 lung) | TGI (SW-620 colon) | TGI (SNB-19 CNS) | TGI (OVCAR-4 ovarian) | TGI (SK-MEL-2 melanoma)
10000 nM: TGI (NCI-H522 lung)
> 81200 nM: TGI (MCF7 breast)
> 40300 nM: TGI (LOX IMVI melanoma)
677 nM: TGI (MDA-MB-435)
> 30700 nM: TGI (NCI-H226 lung)
1910 nM: TGI (SF-539 CNS)
> 38100 nM: TGI (HCT-15 colon)
> 58500 nM: TGI (BT-549 breast)
> 47800 nM: TGI (HS 578T breast)
6690 nM: TGI (COLO 205 colon)
> 39500 nM: TGI (U251 CNS)
7780 nM: TGI (HCC-2998 colon)
15100 nM: TGI (RPMI-8226 leukemia)
> 38400 nM: TGI (HCT-116 colon)
> 52300 nM: TGI (SN12C renal)
707 nM: TGI (RXF 393 renal)
1100 nM: TGI (A498 renal)
> 45000 nM: TGI (M14 melanoma) | TGI (MDA-MB-231 breast)
> 24300 nM: TGI (MOLT-4 leukemia)
> 46500 nM: TGI (SK-MEL-5 melanoma)
> 60300 nM: TGI (HOP-62 NSCLC)
inactive: GI50 (HCC-2998 colon) 1070 nM | GI50 (TK-10 renal) 22700 nM | GI50 (EKVX NSCLC) 932 nM | GI50 (CCRF-CEM leukemia) 459 nM | GI50 (SN12C renal) 831 nM | GI50 (A549 NSCLC) 898 nM | GI50 (T-47D breast) 561 nM | GI50 (NCI/ADR-RES ovarian) 444 nM | GI50 (SK-MEL-28 melanoma) 3420 nM | GI50 (HCT-15 colon) 447 nM | GI50 (PC-3 prostate) 494 nM | GI50 (MOLT-4 leukemia) 540 nM | GI50 (DU-145 prostate) 571 nM | GI50 (UACC-257 melanoma) > 43500 nM | GI50 (IGROV1 ovarian) 515 nM | GI50 (SK-OV-3 ovarian) 794 nM | GI50 (HOP-92 NSCLC) 851 nM | GI50 (COLO 205 colon) 818 nM | GI50 (UACC-62 melanoma) 514 nM | GI50 (MDA-MB-231 breast) 1570 nM | GI50 (BT-549 breast) 650 nM | GI50 (HOP-62 NSCLC) 552 nM | GI50 (HT29 colon) 1140 nM | GI50 (MALME-3M melanoma) 603 nM | GI50 (OVCAR-5 ovarian) 3160 nM | GI50 (KM12 colon) 452 nM | GI50 (UO-31 renal) 562 nM | GI50 (SF-268 CNS) 766 nM | GI50 (NCI-H226 lung) 457 nM | GI50 (OVCAR-8 ovarian) 716 nM | GI50 (U251 CNS) 510 nM | GI50 (SK-MEL-5 melanoma) 500 nM | GI50 (ACHN renal) 699 nM | GI50 (786-0 renal) 469 nM | GI50 (LOX IMVI melanoma) 665 nM | GI50 (NCI-H23 lung) 545 nM | GI50 (SW-620 colon) 527 nM | GI50 (SNB-19 CNS) 518 nM | GI50 (OVCAR-4 ovarian) 1480 nM | GI50 (SK-MEL-2 melanoma) 1140 nM
